Measured values: a compilation of properties of binary mixtures (doi:10.1016/j.molliq.2018.12.032)

Assay: xn = mol fraction of the nth substance listed
Settings: 101 kPa

C[P+](c1ccccc1)(c1ccccc1)c1ccccc1.[Br-] + OCCO
x1 = 0.25
Settings	electrical conductivity [S/m]	viscosity [mPa·s]
293.15 K	0.119	211
303.15 K	0.153	136
313.15 K	0.192	89.5
323.15 K	0.238	60.6
333.15 K	0.291	42
343.15 K	0.352	29.7
353.15 K	0.422	21.5

[Cl-].c1ccc(C[P+](c2ccccc2)(c2ccccc2)c2ccccc2)cc1 + OCCO
x1 = 0.083
Settings	electrical conductivity [S/m]	viscosity [mPa·s]
303.15 K	0.241	43.7
323.15 K	0.365	24.2
333.15 K	0.441	18.4
343.15 K	0.527	14.3
353.15 K	0.623	11.3

C[P+](c1ccccc1)(c1ccccc1)c1ccccc1.[Br-] + OCCOCCO
x2 = 0.8
Settings	electrical conductivity [S/m]	viscosity [mPa·s]
293.15 K	0.0618	141
303.15 K	0.0986	103
313.15 K	0.132	60.6
323.15 K	0.18	38.7
333.15 K	0.258	27
343.15 K	0.294	20.4
353.15 K	0.337	18.3

[Cl-].c1ccc(C[P+](c2ccccc2)(c2ccccc2)c2ccccc2)cc1 + OCCOCCO
x2 = 0.875
Settings	electrical conductivity [S/m]	viscosity [mPa·s]
293.15 K	0.0466	–
303.15 K	0.0706	102
323.15 K	0.116	42.3
333.15 K	0.147	30
343.15 K	0.158	22.8
